Experiments:
Format in all cases: cell-based
[1] = system: skin fibroblasts; test: β-galactosidase staining of UVB-induced cell aging; settings: UVB of 10 mJ/cm^2; pretreated at 10 µM for 24 hours
Description: β-galactosidase is used to induce cellular aging of fibroblasts, which are the main cells of the epidermal layer of skin, by using UVB, the most important environmental factor in skin aging, as the most common marker for cell aging and β-galactosidase staining was performed to analyze the cell aging protection of Compound 32u. […]

[2] = target: T1, PPARβ/δ (Homo sapiens, UniProt Q03181); test: PPAR response element (PPRE)-luciferase assay in fibroblasts; settings: fibroblasts overexpressing PPARβ/δ; compared with GW501516
T1 construct: endogenous in cells
T1 sequence (Q03181 1-441): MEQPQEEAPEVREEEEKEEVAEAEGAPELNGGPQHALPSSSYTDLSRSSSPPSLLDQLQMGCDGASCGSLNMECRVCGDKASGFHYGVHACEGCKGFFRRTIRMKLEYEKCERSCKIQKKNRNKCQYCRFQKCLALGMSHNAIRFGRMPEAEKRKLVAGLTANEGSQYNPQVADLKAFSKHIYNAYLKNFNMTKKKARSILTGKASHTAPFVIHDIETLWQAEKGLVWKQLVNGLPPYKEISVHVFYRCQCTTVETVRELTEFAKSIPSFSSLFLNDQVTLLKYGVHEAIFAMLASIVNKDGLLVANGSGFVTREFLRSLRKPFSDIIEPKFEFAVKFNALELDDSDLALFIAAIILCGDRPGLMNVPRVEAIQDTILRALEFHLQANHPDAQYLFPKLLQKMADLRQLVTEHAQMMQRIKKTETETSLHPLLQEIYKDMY
Description: Next, to analyze the effect of PPARβ/δ activity of Compound 69c, a PPAR response element (PPRE)-luciferase assay was performed on fibroblasts, which are the main cells of the skin epithelial layer. A binding site region of PPARβ/δ, i.e. plasmids in which the PPRE region was bound upstream of the luciferase gene were transfected by treating the cells with lipofectamine. Through this process, DNA is surrounded by lipofectamine, making it easier to pass the cell membrane. In addition, it is possible to identify which of the PPAR subtypes is effective by overexpressing PPARβ/δ in addition to the endogenous PPAR subtype. 18 to 24 hours after transduction, at least 5 hours after treatment with the candidate compound, fluorescence was measured by addition of the substrate of the luciferase assay system. Luciferase expression amount can be analyzed by the fluorescence value, and the activity level of PPARβ/δ can be analyzed through the above results.

[3] = target: T1, PPARβ/δ; test: PPARβ/δ transfer into the nucleus, western blot; settings: 1 hour and 30 minutes after treating cells
[4] = system: SIRT 1; test: SIRT 1 expression, real-time PCR and western blot
Description: To confirm whether Compound 69c increases the expression of SIRT 1 through the activation of PPARβ/δ, real-time PCR and western blot were performed.

[5] = system: p53; test: Acetylation of p53 increased by UVB
From the text: Furthermore, SIRT 1 is known to exert its function through deacetylation of various substrate proteins.

[6] = system: reactive oxygen species (ROS); test: Reactive oxygen species with DCF-DA fluorescent dye
[7] = system: pro-collagen; test: Pro-collagen expression in UVB photoaging of skin fibroblasts, Western blotting; settings: skin fibroblasts pretreated with 10 µM one hour before 8 mJ/cm^2 UVB; after 6 hours
Description: First, the effect of Compound 69c on pro-collagen expression by cell photoaging was analyzed. A collagen reduction model by UVB was constructed using skin fibroblasts to perform the experiments. Skin fibroblasts were pretreated with 10 µM Compound 69c one hour ago and irradiated with 8 mJ/cm^2 of UVB. After 6 hours, the cells were lysed and the expression of pro-collagen was confirmed via Western blotting.

[8] = system: MMP1; test: MMP1 expression in UVB photoaging of skin fibroblasts, Western blotting; settings: skin fibroblasts pretreated with 10 µM 1 hour before 8 mJ/cm^2 UVB; after 6 hours
Description: (§1) Based on this, in order to confirm the effect of Compound 69c on the expression level of intracellular MMPs, 10 µM of Compound 69c was pretreated 1 hour prior to skin fibroblasts and irradiated with UVB of 8 mJ/cm^2. After 6 hours, cells were lysed and the expression levels of MMP1 and MMP13 were confirmed by Western blotting.

[9] = system: MMP13; test: MMP13 expression in UVB photoaging of skin fibroblasts, Western blotting; settings: skin fibroblasts pretreated with 10 µM 1 hour before 8 mJ/cm^2 UVB; after 6 hours
Description: as §1

PPARβ/δ activity (PPRE-luciferase) [2]: higher PPARβ/δ activity than GW501516
Structure (SMILES): CN1CCN(Cc2ccc3oc(-c4ccccc4NC(=O)c4ccc5ccccc5c4)nc3c2)CC1 [Compound 69c, N-(2-(5-((4-Methylpiperazin-1-yl)methyl)benzo[d]oxazol-2-yl)phenyl)-2-naphthamide]
β-galactosidase staining [1]: reduced
PPARβ/δ transfer in the nucleus [3]: increase in PPARβ/δ transfer in the nucleus
mRNA expression level of SIRT 1 ([4]; real-time PCR): increased
protein expression level of SIRT 1 ([4]; western blot): increased
acetylation of p53 [5]: inhibited acetylation of p53 increased by UVB
reactive oxygen species induced by UVB [6]: inhibited
expression of pro-collagen [7]: increased
expression of MMP1 [8]: reduced
expression of MMP13 [9]: reduced
